Experimental findings from the supplement of paper PMC12698765 are described below.

Assay [1] has as its system 409B2 hiPSC (iCRISPR Cas9, FRMD7 editing). Nature of the assay: cell survival relative to solvent control (fold (ratio to mock)); higher = more surviving cells. How it is done:
(§1)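 Subset screen of 55 drugs tested at 5 concentrations around the effective screening dose, in 409B2 iCRISPR Cas9 hiPSCs editing FRMD7 with a ssDNA donor. Drugs were applied for 24 h. Viability was read by resazurin and editing outcomes by amplicon sequencing (HDR, NHEJ <2 bp microhomology, MMEJ ≥2 bp microhomology). Values are relative to solvent mock controls; two biological replicates.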

Assay [2] has the same test system. Nature of the assay: HDR (precise edit) frequency relative to solvent control (fold (ratio to mock)); higher = more homology-directed repair outcomes. How it is done:
as §1

Assay [3] has the same test system. Nature of the assay: NHEJ-attributed indel frequency relative to solvent control (fold (ratio to mock)); higher = more NHEJ outcomes. How it is done: as §1
Assay [4] shares this test system. Nature of the assay: MMEJ-attributed deletion frequency relative to solvent control (fold (ratio to mock)); higher = more MMEJ outcomes. How it is done: as §1

± gives the standard deviation of the averaged measurements.

With `Oc1cccc(O)c1` [Resorcinol] (in DMSO), the cell survival in assay [1] (200 nM) was 1.15; in assay [1] (500 nM), 1.17; in assay [1] (1000 nM), 0.955; in assay [1] (2000 nM) it was 1.03; in assay [1] (5000 nM), 1.12. Moreover, the HDR in assay [2] (200 nM) amounted to 1.07 ± 0.072; in assay [2] (500 nM) it was 1.08 ± 0.038; in assay [2] (1000 nM) it was 1.11 ± 0.026; in assay [2] (2000 nM), 1.07 ± 0.021; in assay [2] (5000 nM), 1.06 ± 0.073. In addition, the NHEJ-attributed indel frequency in assay [3] (200 nM) was 0.988 ± 0.024; in assay [3] (500 nM), 0.995 ± 0.0014; in assay [3] (1000 nM), 1 ± 0.043; in assay [3] (2000 nM) it was 0.999 ± 0.033; in assay [3] (5000 nM), 0.99 ± 0.043. For the same molecule, the MMEJ-attributed deletion frequency was found to be 0.916 ± 0.095 in assay [4] (200 nM); 0.884 ± 0.054 in assay [4] (500 nM); 0.824 ± 0.045 in assay [4] (1000 nM); 0.934 ± 0.13 in assay [4] (2000 nM); 0.922 ± 0.16 in assay [4] (5000 nM).

Regarding `CC[C@H](CO)Nc1nc(NCc2ccccc2)c2ncn(C(C)C)c2n1` [Roscovitine (Seliciclib,CYC202)] (in DMSO), the cell survival in assay [1] (20 nM) is 1.04; in assay [1] (50 nM), 1.14; in assay [1] (100 nM) it was 0.963; in assay [1] (200 nM), 0.955; in assay [1] (500 nM), 1.17. Moreover, the HDR in assay [2] (20 nM) came out at 1.06 ± 0.024; in assay [2] (50 nM), 0.983 ± 0.017; in assay [2] (100 nM) it was 1.08 ± 0.043; in assay [2] (200 nM) it was 1.02 ± 0.043; in assay [2] (500 nM) it was 1.11 ± 0.049. Also, the NHEJ-attributed indel frequency is 1.004 ± 0.0097 in assay [3] (20 nM); 1 ± 0.011 in assay [3] (50 nM); 0.992 ± 0.013 in assay [3] (100 nM); 0.995 ± 0.037 in assay [3] (200 nM); 1 ± 0.021 in assay [3] (500 nM). Further, the MMEJ-attributed deletion frequency in assay [4] (20 nM) was 0.952 ± 0.12; in assay [4] (50 nM) it was 0.912 ± 0.082; in assay [4] (100 nM), 0.943 ± 0.021; in assay [4] (200 nM), 0.943 ± 0.18; in assay [4] (500 nM), 1 ± 0.058.

With `CNCc1ccc(-c2[nH]c3cc(F)cc4c3c2CCNC4=O)cc1` [Rucaparib (free base)] (in DMSO), the cell survival turned out to be 0.789 in assay [1] (20 nM); 0.744 in assay [1] (50 nM); 0.541 in assay [1] (100 nM); 0.487 in assay [1] (200 nM); 0.291 in assay [1] (500 nM). Also, the HDR in assay [2] (20 nM) was 1.13 ± 0.035; in assay [2] (50 nM), 1.302 ± 0.0046; in assay [2] (100 nM), 1.31 ± 0.071; in assay [2] (200 nM) it was 1.32 ± 0.17; in assay [2] (500 nM), 1.26 ± 0.037. The NHEJ-attributed indel frequency in assay [3] (20 nM) was 0.952 ± 0.015; in assay [3] (50 nM), 0.924 ± 0.013; in assay [3] (100 nM) it was 0.876 ± 0.034; in assay [3] (200 nM), 0.853 ± 0.045; in assay [3] (500 nM) it was 0.787 ± 0.054. The MMEJ-attributed deletion frequency in assay [4] (20 nM) worked out at 1.04 ± 0.017; in assay [4] (50 nM), 0.892 ± 0.2; in assay [4] (100 nM) it was 0.93 ± 0.079; in assay [4] (200 nM), 0.869 ± 0.16; in assay [4] (500 nM), 0.918 ± 0.076.

As to `O=C(O[C@H]1CN2CCC1CC2)N1CCc2ccccc2[C@@H]1c1ccccc1` [Solifenacin succinate] (in DMSO), the cell survival in assay [1] (200 nM) worked out at 1.04; in assay [1] (500 nM) it was 1.16; in assay [1] (1000 nM) it was 0.907; in assay [1] (2000 nM) it was 1.06; in assay [1] (5000 nM), 1.1. Also, the HDR in assay [2] (200 nM) amounted to 1.14 ± 0.017; in assay [2] (500 nM) it was 1.06 ± 0.051; in assay [2] (1000 nM), 1.04 ± 0.12; in assay [2] (2000 nM), 1.02 ± 0.015; in assay [2] (5000 nM), 1.09 ± 0.039. The NHEJ-attributed indel frequency in assay [3] (200 nM) was found to be 0.9657 ± 0.0021; in assay [3] (500 nM), 0.993 ± 0.015; in assay [3] (1000 nM), 0.999 ± 0.026; in assay [3] (2000 nM), 1.01 ± 0.017; in assay [3] (5000 nM), 0.989 ± 0.032. Besides, the MMEJ-attributed deletion frequency in assay [4] (200 nM) came out at 0.989 ± 0.091; in assay [4] (500 nM), 0.991 ± 0.017; in assay [4] (1000 nM), 0.924 ± 0.054; in assay [4] (2000 nM), 0.937 ± 0.033; in assay [4] (5000 nM), 1.01 ± 0.12.

With `C1CCN2C[C@@H]3C[C@@H](CN4CCCC[C@@H]34)[C@H]2C1` [Sparteine] (in DMSO), the cell survival was determined as 0.978 in assay [1] (20 nM); 1.24 in assay [1] (50 nM); 1 in assay [1] (100 nM); 1.05 in assay [1] (200 nM); 1.26 in assay [1] (500 nM). For the same molecule, the HDR is 1.11 ± 0.044 in assay [2] (20 nM); 1.001 ± 0.0048 in assay [2] (50 nM); 1.05 ± 0.061 in assay [2] (100 nM); 1.04 ± 0.051 in assay [2] (200 nM); 1.02 ± 0.15 in assay [2] (500 nM). Besides, the NHEJ-attributed indel frequency was 0.9845 ± 0.0022 in assay [3] (20 nM); 0.98809 ± 0.00026 in assay [3] (50 nM); 1.01 ± 0.011 in assay [3] (100 nM); 0.9919 ± 0.0066 in assay [3] (200 nM); 0.988 ± 0.035 in assay [3] (500 nM). The MMEJ-attributed deletion frequency came to 0.908 ± 0.028 in assay [4] (20 nM); 0.866 ± 0.061 in assay [4] (50 nM); 0.957 ± 0.098 in assay [4] (100 nM); 1.03 ± 0.086 in assay [4] (200 nM); 0.9904 ± 0.0051 in assay [4] (500 nM).

Take `CC[N+](CC)(CC)CC` [Tetraethylammonium chloride] (in EtOH): the cell survival in assay [1] (0.2 nM) stood at 0.933; in assay [1] (0.5 nM), 1.09; in assay [1] (1 nM), 0.954; in assay [1] (2 nM), 0.979; in assay [1] (5 nM) it was 1.03. Further, the HDR is 1.11 ± 0.15 in assay [2] (0.2 nM); 1.09 ± 0.19 in assay [2] (0.5 nM); 1.02 ± 0.019 in assay [2] (1 nM); 0.961 ± 0.11 in assay [2] (2 nM); 0.922 ± 0.038 in assay [2] (5 nM). The NHEJ-attributed indel frequency in assay [3] (0.2 nM) stood at 0.99 ± 0.026; in assay [3] (0.5 nM), 0.996 ± 0.018; in assay [3] (1 nM), 0.99607 ± 0.00072; in assay [3] (2 nM), 1.007 ± 0.01; in assay [3] (5 nM), 0.9965 ± 0.0079. In addition, the MMEJ-attributed deletion frequency in assay [4] (0.2 nM) was found to be 1.05 ± 0.022; in assay [4] (0.5 nM), 1.03 ± 0.11; in assay [4] (1 nM), 0.964 ± 0.1; in assay [4] (2 nM), 1.053 ± 0.0031; in assay [4] (5 nM) it was 0.9894 ± 0.0011.
